Source: publication PMC8856729 (Bioorganic & Medicinal Chemistry Letters, 2022)
Read-outs that look alike come from different tables or passages of the source.

Tested on: SARS-CoV-2 M^pro variants (all mutants and the WT)
Type: biochemical

## CC(C)(C)[C@H](NC(=O)C(F)(F)F)C(=O)N1C[C@H]2[C@@H]([C@H]1C(=O)N[C@H](C#N)C[C@@H]1CCNC1=O)C2(C)C [nirmatrelvir]
0.005 µM
  inhibition: below 50%
0.02 µM
  inhibition: over 50%
0.1 µM
  inhibition of enzymatic activity: fully inhibited
